Two compounds from patent US6548480B1, “Phosphonic acid derivatives with metallopeptidase inhibitory activity” (Zambon Group S.p.A., priority 1995, dated 2003) can be followed below.

Test [1] deals with T1, NEP (Rattus norvegicus, UniProt P07861).
T1 sequence (P07861 1-750): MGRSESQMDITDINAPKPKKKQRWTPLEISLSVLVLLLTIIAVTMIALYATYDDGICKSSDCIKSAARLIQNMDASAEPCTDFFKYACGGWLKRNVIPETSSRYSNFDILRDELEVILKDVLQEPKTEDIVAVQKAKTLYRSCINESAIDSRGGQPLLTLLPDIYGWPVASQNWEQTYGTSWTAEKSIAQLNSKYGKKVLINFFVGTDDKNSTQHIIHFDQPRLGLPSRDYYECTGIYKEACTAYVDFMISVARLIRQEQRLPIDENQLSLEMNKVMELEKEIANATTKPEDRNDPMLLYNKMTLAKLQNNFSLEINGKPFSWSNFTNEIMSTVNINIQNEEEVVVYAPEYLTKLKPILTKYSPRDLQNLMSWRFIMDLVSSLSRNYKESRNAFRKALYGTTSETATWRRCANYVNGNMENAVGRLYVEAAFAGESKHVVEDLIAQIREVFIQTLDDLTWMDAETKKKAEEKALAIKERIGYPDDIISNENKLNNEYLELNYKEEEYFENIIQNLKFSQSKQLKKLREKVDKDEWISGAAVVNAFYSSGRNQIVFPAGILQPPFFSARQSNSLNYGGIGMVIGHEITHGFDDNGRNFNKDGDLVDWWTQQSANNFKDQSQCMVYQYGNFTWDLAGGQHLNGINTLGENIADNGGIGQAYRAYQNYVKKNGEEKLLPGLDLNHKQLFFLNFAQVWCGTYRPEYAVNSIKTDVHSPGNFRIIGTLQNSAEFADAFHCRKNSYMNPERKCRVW
Description: In vitro NEP-inhibitory activity in rat kidney cortex membranes ([3H][Leu5]-enkephaline hydrolysis). The test is classed as biochemical. Details: from tissue; host or cells: kidney cortex membranes of male Sprague-Dawley rats. The note with it: [3H][Leu5]-enkephaline 15 nM, 30° C., compounds of formula I tested as lithium salts. On the procedure: The NEP-inhibitory activity was evaluated in rat kidney cortex membranes prepared according to the procedure described by T. Maeda et al. in Biochim Biophys.
Cortex was carefully dissected, finely minced and suspended in a homogenization buffer (10 mM sodium phosphate pH 7.4 containing 1 mM MgCl2, 30 mM NaCl, 0.02% NaN3) 1:15 weight/volume.
The tissue was then homogenized for 30 seconds using an Ultra-Turrax homogenizer.
The membranes were collected from the buffer/sucrose interface, washed twice with 50 mM TRIS/HCl buffer (pH 7.4) and resuspended into the same buffer for storage.
The NEP-inhibitory activity was evaluated according to the method described by C.
Incubation (20 minutes at 30° C.) was stopped by adding HCl 0.1M (100 μl).
The percentage of inhibition of the metabolite formation in the membrane preparations treated with the compounds of formula I and with the comparative compounds with respect to the untreated membrane preparations was expressed as IC50 (nM) value.

In test [2] the target is T2, ACE (Oryctolagus cuniculus, UniProt P12822).
T2 construct: ACE (250 mU/ml purified by lung rabbit, EC 3.4.15.1 SIGMA); purchased SIGMA; host or cells: rabbit lung
T2 sequence (P12822 34-1310): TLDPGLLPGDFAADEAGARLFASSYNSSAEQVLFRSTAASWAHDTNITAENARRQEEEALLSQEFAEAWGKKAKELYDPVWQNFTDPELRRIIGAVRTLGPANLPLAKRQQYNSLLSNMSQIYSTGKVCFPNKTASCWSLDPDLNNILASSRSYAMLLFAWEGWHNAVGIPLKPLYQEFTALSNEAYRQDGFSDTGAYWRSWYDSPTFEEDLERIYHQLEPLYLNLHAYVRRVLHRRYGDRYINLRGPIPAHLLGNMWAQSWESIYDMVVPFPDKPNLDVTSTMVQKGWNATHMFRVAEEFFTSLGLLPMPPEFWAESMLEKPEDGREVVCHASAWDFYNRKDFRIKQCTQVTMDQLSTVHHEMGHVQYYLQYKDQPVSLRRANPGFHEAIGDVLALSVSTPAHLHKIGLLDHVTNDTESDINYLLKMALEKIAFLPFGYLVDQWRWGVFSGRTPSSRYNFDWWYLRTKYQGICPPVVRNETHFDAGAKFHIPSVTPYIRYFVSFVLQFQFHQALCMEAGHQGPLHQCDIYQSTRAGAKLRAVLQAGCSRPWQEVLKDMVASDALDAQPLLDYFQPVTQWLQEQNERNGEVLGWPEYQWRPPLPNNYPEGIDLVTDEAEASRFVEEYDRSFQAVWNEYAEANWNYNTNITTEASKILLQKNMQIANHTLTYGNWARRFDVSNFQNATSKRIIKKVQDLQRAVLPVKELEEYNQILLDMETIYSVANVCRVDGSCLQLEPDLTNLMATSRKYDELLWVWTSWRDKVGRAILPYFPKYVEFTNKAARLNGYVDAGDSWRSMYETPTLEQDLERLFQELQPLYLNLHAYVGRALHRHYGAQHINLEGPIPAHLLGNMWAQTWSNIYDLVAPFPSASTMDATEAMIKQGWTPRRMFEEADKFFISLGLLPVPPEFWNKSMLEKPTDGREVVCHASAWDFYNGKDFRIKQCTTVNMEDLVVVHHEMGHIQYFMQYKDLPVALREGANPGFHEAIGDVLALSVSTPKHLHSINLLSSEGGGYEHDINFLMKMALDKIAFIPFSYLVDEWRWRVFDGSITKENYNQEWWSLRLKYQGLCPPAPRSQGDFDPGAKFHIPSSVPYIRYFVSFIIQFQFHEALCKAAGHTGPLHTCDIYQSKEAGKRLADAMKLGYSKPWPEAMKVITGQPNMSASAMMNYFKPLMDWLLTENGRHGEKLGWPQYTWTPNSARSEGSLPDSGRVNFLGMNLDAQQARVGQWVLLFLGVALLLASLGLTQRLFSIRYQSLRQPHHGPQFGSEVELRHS
Description: In vitro ACE-inhibitory activity (FAPGG substrate, spectrophotometric). The test is classed as biochemical. The settings on record: ACE purified by lung rabbit, FAPGG 0.8 mM, 37° C.; compounds of formula I tested as lithium salts. On the procedure: The reaction was started by adding furylacryloylphenylalanylglycylglycine 0.8 mM (FAPGG-SIGMA).
Contemporaneously, by using a Beckman DU-50 spectrophotometer provided with a program for calculating delta A/minutes and regression coefficients of the enzyme kinetics curves, the absorbance at 340 nm was recorded in continuo for 5 minutes.

The target of test [3] is T3, ACE (Rattus norvegicus, UniProt P47820).
T3 construct: After the removal of the lungs from SHR, the lung tissue was homogenized; from tissue; host or cells: lung homogenate of spontaneously hypertensive rats (SHR) dosed i.v
T3 sequence (P47820 36-1313): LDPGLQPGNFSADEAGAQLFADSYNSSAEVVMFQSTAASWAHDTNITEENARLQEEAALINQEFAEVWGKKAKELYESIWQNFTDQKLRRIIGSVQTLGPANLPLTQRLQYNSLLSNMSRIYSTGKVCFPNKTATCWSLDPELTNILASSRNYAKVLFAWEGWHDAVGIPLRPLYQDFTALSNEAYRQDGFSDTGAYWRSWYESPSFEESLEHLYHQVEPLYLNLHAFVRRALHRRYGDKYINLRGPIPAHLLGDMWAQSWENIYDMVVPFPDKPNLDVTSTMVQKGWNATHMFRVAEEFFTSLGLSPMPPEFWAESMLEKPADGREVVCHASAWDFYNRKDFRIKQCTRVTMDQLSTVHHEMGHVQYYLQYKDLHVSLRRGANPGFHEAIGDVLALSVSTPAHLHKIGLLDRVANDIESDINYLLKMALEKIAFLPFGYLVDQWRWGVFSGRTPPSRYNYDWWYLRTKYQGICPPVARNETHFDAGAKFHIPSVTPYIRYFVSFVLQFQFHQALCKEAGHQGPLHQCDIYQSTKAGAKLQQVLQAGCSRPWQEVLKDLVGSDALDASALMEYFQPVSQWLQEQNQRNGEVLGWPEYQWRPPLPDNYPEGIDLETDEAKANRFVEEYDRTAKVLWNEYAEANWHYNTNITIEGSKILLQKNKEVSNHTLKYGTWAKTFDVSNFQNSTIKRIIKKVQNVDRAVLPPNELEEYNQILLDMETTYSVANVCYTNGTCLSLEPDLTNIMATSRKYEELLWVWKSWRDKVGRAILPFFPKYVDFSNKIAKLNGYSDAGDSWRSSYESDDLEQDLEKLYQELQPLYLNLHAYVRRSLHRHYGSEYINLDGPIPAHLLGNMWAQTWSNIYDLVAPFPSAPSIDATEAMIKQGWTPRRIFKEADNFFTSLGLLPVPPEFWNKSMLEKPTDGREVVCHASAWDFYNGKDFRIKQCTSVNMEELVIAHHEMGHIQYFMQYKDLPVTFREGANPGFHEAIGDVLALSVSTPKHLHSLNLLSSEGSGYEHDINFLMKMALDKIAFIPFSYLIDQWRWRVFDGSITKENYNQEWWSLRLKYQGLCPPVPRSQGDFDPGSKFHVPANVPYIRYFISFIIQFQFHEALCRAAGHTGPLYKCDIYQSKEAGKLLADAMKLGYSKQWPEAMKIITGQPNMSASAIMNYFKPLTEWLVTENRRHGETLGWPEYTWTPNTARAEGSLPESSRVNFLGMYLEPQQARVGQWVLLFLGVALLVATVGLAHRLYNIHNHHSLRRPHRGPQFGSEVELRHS
Description: Ex vivo ACE-inhibitory activity in lungs of SHR after i.v. injection. Details: species or system spontaneously hypertensive rats (SHR). The note with it: iv, 5 minutes after i.v. injection, 21 μmoles/kg, read-out: ACE-inhibitory activity (lung) % of inhibition. On the procedure:
After the removal of the lungs from SHR, the lung tissue was homogenized and incubated for 2 hours at 37° C. in the presence of [^3H]Hyp-Gly-Gly, as a substrate.
The reaction was stopped by adding hydrochloric acid.
The released radio-labelled hyppuric acid was extracted with ethyl acetate and counted by liquid scintillation spectrometry, according to conventional methods.

For test [4], the target named is T1, NEP. Description: Ex vivo NEP-inhibitory activity in kidneys of SHR after i.v. injection. More on the design: After the removal of the kidneys from SHR, the renal tissue was homogenized; from tissue; host or cells: kidney homogenate of spontaneously hypertensive rats (SHR) dosed i.v; species or system spontaneously hypertensive rats (SHR). The note with it: iv, 5 minutes after i.v. injection, 21 μmoles/kg, read-out: NEP-inhibitory activity (kidney) % of inhibition. On the procedure: After the removal of the kidneys from SHR, the renal tissue was homogenized and incubated for 15 minutes at 37° C. in the presence of Glutaryl-Ala-Ala-Phe-2-naphthyliamide (GAAP), as a substrate, and aminopeptidase M at pH 7.6. The reaction was stopped by adding an aqueous solution at 10% of trichloroacetic acid.
The released 2-naphthylamine was determined by adding fast garnet dye (2 ml).

Structures are written as SMILES. Counter-ions that a name gives are not always drawn.

Consider `C[C@H](CS)C(=O)N1CCC[C@H]1C(=O)O` [Captopril], for which the “NEP-inhibitory activity IC50 (nM)” value on NEP [1] is recorded as “not active”.
The term IC50 denotes the midpoint of a concentration-inhibition curve. As a reminder, the inhibition is how much of the control response was suppressed. `O=C(O)[C@H](Cc1ccccc1)NC(=O)[C@H](Cc1ccccc1)NP(=O)(O)CCCCc1ccccc1` [Compound R-1, N-[N′-(4-phenyl)butylphosphonyl-L-phenlalanyl]-L-phenylalanine dilithium salt]: the IC50 at ACE [2] was determined as 20 nM; at NEP [1] it was 5.5 nM. Besides, the results for the inhibition at 21 µmol/kg at ACE [3] and on NEP [4] were 25% and 20%, respectively.
